According to ChEMBL document CHEMBL6074679, “Diastereoselective synthesis and biological evaluation of new fluorine-containing α-aminophosphonates as anticancer agents and scaffold to human urokinase plasminogen activator inhibitors” (Eur J Med Chem, 2025):

How the values were obtained:
[1] = system: U-87 MG; test: Cytotoxicity against human U-87 MG cells incubated for 48 hrs by MTT assay; type: functional, cell-based, U-87MG ATCC
[2] = system: U-251; test: Cytotoxicity against human U-251MG cells incubated for 48 hrs by MTT assay; type: functional, cell-based; details: U-251, 48 h
[3] = system: U-118-MG; test: Cytotoxicity against human U-118 MG cells incubated for 48 hrs by MTT assay; type: functional, cell-based
[4] = system: OVCAR-3; test: Cytotoxicity against human OVCAR-3 cells incubated for 48 hrs by MTT assay; type: functional, cell-based; details: OVCAR-3, 48 h
[5] = system: SK-OV-3; test: Cytotoxicity against human SK-OV-3 cells incubated for 48 hrs by MTT assay; type: functional, cell-based; details: SK-OV-3, 48 h
[6] = system: HepG2; test: Cytotoxicity against human HepG2 cells incubated for 48 hrs by MTT assay; type: functional, cell-based; details: HepG2, 48 h
[7] = system: Caco-2; test: Cytotoxicity against human Caco-2 cells incubated for 48 hrs by MTT assay; type: functional, cell-based; details: Caco-2, 48 h
[8] = system: HeLa; test: Cytotoxicity against human HeLa cells incubated for 48 hrs by MTT assay; type: functional, cell-based
[9] = system: MDA-MB-231; test: Cytotoxicity against human MDA-MB-231 cells incubated for 48 hrs by MTT assay; type: functional, cell-based; details: MDA-MB-231, 48 h
[10] = system: A549; test: Cytotoxicity against human A549 cells incubated for 48 hrs by MTT assay; type: functional, cell-based; details: A549, 48 h
[11] = Cytotoxicity against human MRC5 cells incubated for 48 hrs by MTT assay; type: toxicity, cell-based
[12] = molecular target: Urokinase-type plasminogen activator (Homo sapiens, UniProt P00749); test: Inhibition of human urokinase uPA using Z-Gly-Gly-Arg-AMC as substrate by fluorescence plate reader assay

IC50 [12] [µM] | Compound | IC50 [1] [µM] | IC50 [2] [µM] | IC50 [3] [µM] | IC50 [4] [µM] | IC50 [5] [µM] | IC50 [6] [µM] | IC50 [7] [µM] | IC50 [8] [µM] | IC50 [9] [µM] | IC50 [10] [µM] | IC50 at 48 h [11] [µM]
 | CC(C)OP(=O)(OC(C)C)C(N[C@@H](C)C(C)(C)C)c1ccc(F)cc1F (some centres not stated) | 7.78 | 3.97 | 150 | 194 | 8.63 | 23.6 | 10.5 | 5.37 | 9.89 | 72 | 47.8
147 | COc1ccc([C@@H](C)NC(c2ccc(F)cc2F)P(=O)(OC)OC)cc1 (some centres not stated) | 9.92 | 19 | 183 | 100 | 3.71 | 58.5 | 28.5 | 2.54 | 11 | 53.1 | 10.6
671 | CCOP(=O)(OCC)C(N[C@@H](C)C(C)(C)C)c1c(F)cc(F)cc1F (some centres not stated) | 11.5 | 7.57 | 40.7 | 55.1 | 16.6 | 46.7 | 0.39 | 10.6 | 39.3 | 33.3 | 36.5
280 | CCOP(=O)(OCC)C(N[C@H](C)c1ccc(OC)cc1)c1ccc(F)cc1F (some centres not stated) | 59.2 | 53.2 | 43.6 | 0.64 | 1.63 | 7.79 | 47.4 | 32.4 | 156 | 21.6 | 4.71
720 | COP(=O)(OC)C(N[C@@H](C)C(C)(C)C)c1c(F)cc(F)cc1F (some centres not stated) | 61.1 | 144 | 122 | 13.7 | 7.08 | 92.1 | 72.3 | 4.14 | 83 | 48.6 | 15
 | COP(=O)(OC)C(NC(C)C(C)(C)C)c1ccc(F)cc1 (racemic) | 39.8 | 16.5 | 45.8 | 104 | 8.75 | 5.57 | 16.1 | 6.28 | 230 | 7.95 | 90.7
 | COP(=O)(OC)C(N[C@H](C)c1ccccc1)c1c(F)c(F)c(F)c(F)c1F (some centres not stated) | 5.45 | 34.1 | 51.2 | 13 | 28.2 | 55.1 | 6.02 | 4.09 | 94.3 | 49.6 | 84.1
416 | CCOP(=O)(OCC)C(N[C@H](C)c1ccc(OC)cc1)c1c(F)c(F)c(F)c(F)c1F (some centres not stated) | 9.34 | 78.9 | 14.4 | > 500 | 5.37 | 45.3 | 1.74 | 3.92 | 19.1 | 44.6 | 27.2
 | COP(=O)(OC)C(N[C@@H](C)C(C)(C)C)c1ccccc1F (some centres not stated) | 3.27 | 8.95 | 81.2 | 51.7 | 21.9 | 59.6 | 1.3 | 21.4 | 160 | 55.1 | 34.4
 | CCOP(=O)(OCC)C(N[C@@H](C)C(C)(C)C)c1ccc(F)cc1 (some centres not stated) | 11 | 24.4 | 64.2 | 71.6 | 15.3 | 34.5 | 51.4 | 13 | 59.3 | 49.2 | 13.8
620 | COc1ccc([C@@H](C)NC(c2ccc(F)cc2F)P(=O)(OC(C)C)OC(C)C)cc1 (some centres not stated) | 3.72 | 3.51 | 67.6 | 3.57 | 9.35 | 46.2 | 0.72 | 5.07 | 80.9 | 2.87 | 1.82
